Test system: human embryonic stem cell derived neural stem cells (NSCs)
Test: Neural stem cell proliferation assay (neurogenesis assay)
Assay type: cell-based
Details: Homo sapiens, Neural stem cell, 96 h; Table 1, novel compounds; concentration at which 150% activity of control (100%) is reached; ATP levels (CellTiterGlo) after 4 days incubation
Procedure, shortened: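 NSCs derived from human ES cells by dual SMAD inhibition, seeded on polyornithin/laminin, dosed 4 h later (11 points, 8 μM to 8 nM). After 4 days at 37° C, ATP luminescence read; response = compound/medium control ×100, EC150 = concentration giving 150% of control.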

Compound | EC (150% of control) [µM]
CN(C(=O)c1ccc2cncc(-c3ccc(Cl)cc3)c2n1)C1CC1 [Example 97, 8-(4-Chlorophenyl)-N-cyclopropyl-N-methyl-1,6-naphthyridine-2-carboxamide] | 0.26
Cn1cc(-c2cncc3ccc(C(N)=O)nc23)cn1 [Example 98, 8-(1-Methyl-1H-pyrazol-4-yl)-1,6-naphthyridine-2-carboxamide] | 0.14
Cn1nccc1-c1cncc2ccc(C(N)=O)nc12 [Example 99, 8-(1-Methyl-1H-pyrazol-5-yl)-1,6-naphthyridine-2-carboxamide] | 2.2
COCc1cccc(-c2cncc3ccc(C(N)=O)nc23)c1 [Example 100, 8-(3-(Methoxymethyl)phenyl)-1,6-naphthyridine-2-carboxamide] | 0.02
NC(=O)c1ccc2cncc(-c3ccc(C(F)(F)F)cc3)c2n1 [Example 101, 8-(4-(Trifluoromethyl)phenyl)-1,6-naphthyridine-2-carboxamide] | 0.02
Cc1nc(C)c(-c2cncc3ccc(C(N)=O)nc23)s1 [Example 102, 8-(2,4-Dimethylthiazol-5-yl)-1,6-naphthyridine-2-carboxamide] | 0.14
NC(=O)c1ccc2cncc(-c3ccc(-n4cccn4)cc3)c2n1 [Example 103, 8-(4-(1H-Pyrazol-1-yl)phenyl)-1,6-naphthyridine-2-carboxamide] | 0.01
COCc1ccc(-c2cncc3ccc(C(N)=O)nc23)cc1 [Example 104, 8-(4-(Methoxymethyl)phenyl)-1,6-naphthyridine-2-carboxamide] | 0.02
CC(C)Oc1ccc(-c2cncc3ccc(C(N)=O)nc23)cc1 [Example 105, 8-(4-Isopropoxyphenyl)-1,6-naphthyridine-2-carboxamide] | 0.01
CN(C)S(=O)(=O)c1ccc(-c2cncc3ccc(C(N)=O)nc23)cc1 [Example 106, 8-(4-(N,N-Dimethylsulfamoyl)phenyl)-1,6-naphthyridine-2-carboxamide] | 0.19
CC(NC(=O)c1ccc2cncc(-c3ccc(F)cc3)c2n1)c1ccc(S(C)(=O)=O)cc1 (stereo not shown) [Example 107, 8-(4-Fluorophenyl)-N-(1-(4-(methylsulfonyl)phenyl)ethyl)-1,6-naphthyridine-2-carboxamide] | 0.1
CC(NC(=O)c1ccc2cncc(-c3ccccc3F)c2n1)c1ccc(S(C)(=O)=O)cc1 (stereo not shown) [Example 108, 8-(2-Fluorophenyl)-N-(1-(4-(methylsulfonyl)phenyl)ethyl)-1,6-naphthyridine-2-carboxamide] | 0.5
CC(NC(=O)c1ccc2cncc(-c3cccc(F)c3)c2n1)c1ccc(S(C)(=O)=O)cc1 (stereo not shown) [Example 109, 8-(3-Fluorophenyl)-N-(1-(4-(methylsulfonyl)phenyl)ethyl)-1,6-naphthyridine-2-carboxamide] | 4.2
CC(NC(=O)c1ccc2cncc(-c3ccc(F)cc3F)c2n1)c1ccc(S(C)(=O)=O)cc1 (stereo not shown) [Example 110, 8-(2,4-Difluorophenyl)-N-(1-(4-(methylsulfonyl)phenyl)ethyl)-1,6-naphthyridine-2-carboxamide] | 0.49
CC(NC(=O)c1ccc2cncc(-c3ccc(F)c(F)c3)c2n1)c1ccc(S(C)(=O)=O)cc1 (stereo not shown) [Example 111, 8-(3,4-Difluorophenyl)-N-(1-(4-(methylsulfonyl)phenyl)ethyl)-1,6-naphthyridine-2-carboxamide] | 0.3
CS(=O)(=O)c1ccc(CNC(=O)c2ccc3cncc(-c4ccccc4F)c3n2)cc1 [Example 112, 8-(2-Fluorophenyl)-N-(4-(methylsulfonyl)benzyl)-1,6-naphthyridine-2-carboxamide] | 0.25

Compound | EC (150% of control) [µM]
CS(=O)(=O)c1ccc(CNC(=O)c2ccc3cncc(-c4cccc(F)c4)c3n2)cc1 [Example 113, 8-(3-Fluorophenyl)-N-(4-(methylsulfonyl)benzyl)-1,6-naphthyridine-2-carboxamide] | 0.17
CS(=O)(=O)c1ccc(CNC(=O)c2ccc3cncc(-c4ccc(F)cc4F)c3n2)cc1 [Example 114, 8-(2,4-Difluorophenyl)-N-(4-(methylsulfonyl)benzyl)-1,6-naphthyridine-2-carboxamide] | 0.51
CS(=O)(=O)c1ccc(CNC(=O)c2ccc3cncc(-c4ccc(F)c(F)c4)c3n2)cc1 [Example 115, 8-(3,4-Difluorophenyl)-N-(4-(methylsulfonyl)benzyl)-1,6-naphthyridine-2-carboxamide] | 1.95
CS(=O)(=O)c1ccc(CNC(=O)c2ccc3cncc(-c4cc(F)ccc4F)c3n2)cc1 [Example 116, 8-(2,5-Difluorophenyl)-N-(4-(methylsulfonyl)benzyl)-1,6-naphthyridine-2-carboxamide] | 1.65
CC(C)(C)CNC(=O)c1ccc2cncc(-c3ccc(F)cc3)c2n1 [Example 117, 8-(4-Fluorophenyl)-N-neopentyl-1,6-naphthyridine-2-carboxamide] | 0.07
CC(C)(C)CNC(=O)c1ccc2cncc(-c3ccccc3F)c2n1 [Example 118, 8-(2-Fluorophenyl)-N-neopentyl-1,6-naphthyridine-2-carboxamide] | 0.04
CC(C)(C)CNC(=O)c1ccc2cncc(-c3cccc(F)c3)c2n1 [Example 119, 8-(3-Fluorophenyl)-N-neopentyl-1,6-naphthyridine-2-carboxamide] | 0.27
CC(C)(C)CNC(=O)c1ccc2cncc(-c3ccc(F)cc3F)c2n1 [Example 120, 8-(2,4-Difluorophenyl)-N-neopentyl-1,6-naphthyridine-2-carboxamide] | 0.08
CC(C)(C)CNC(=O)c1ccc2cncc(-c3ccc(F)c(F)c3)c2n1 [Example 121, 8-(3,4-Difluorophenyl)-N-neopentyl-1,6-naphthyridine-2-carboxamide] | 0.26
CC(C)(C)CNC(=O)c1ccc2cncc(-c3cc(F)ccc3F)c2n1 [Example 122, 8-(2,5-Difluorophenyl)-N-neopentyl-1,6-naphthyridine-2-carboxamide] | 0.12
O=C(NCC(F)(F)F)c1ccc2cncc(-c3cccc(F)c3)c2n1 [Example 123, 8-(3-Fluorophenyl)-N-(2,2,2-trifluoroethyl)-1,6-naphthyridine-2-carboxamide] | 0.38
O=C(NCC(F)(F)F)c1ccc2cncc(-c3ccc(F)cc3)c2n1 [Example 124, 8-(4-Fluorophenyl)-N-(2,2,2-trifluoroethyl)-1,6-naphthyridine-2-carboxamide] | 0.07
O=C(NCC(F)(F)F)c1ccc2cncc(-c3ccccc3F)c2n1 [Example 125, 8-(2-Fluorophenyl)-N-(2,2,2-trifluoroethyl)-1,6-naphthyridine-2-carboxamide] | 0.04
O=C(NCC(F)(F)F)c1ccc2cncc(-c3ccc(F)cc3F)c2n1 [Example 126, 8-(2,4-Difluorophenyl)-N-(2,2,2-trifluoroethyl)-1,6-naphthyridine-2-carboxamide] | 0.06
O=C(NCC(F)(F)F)c1ccc2cncc(-c3ccc(F)c(F)c3)c2n1 [Example 127, 8-(3,4-Difluorophenyl)-N-(2,2,2-trifluoroethyl)-1,6-naphthyridine-2-carboxamide] | 0.23

— patent publication US9657014B2, “Substituted 1,6-naphthyridines” (Hoffmann-La Roche Inc., priority 2012, dated 2017)
